Laboratory results as given in patent US8791050B2, “Herbicidal compositions” (priority 1998, dated 2014).

What was measured:
Type in all cases: in vivo
[1] = tested on: Sesbania exaltata (SEBEX); assay: Herbicidal effect in rice, field trial, Sesbania exaltata; details: Table 1 field trial, post-emergence, scoring 7 days after application, 45 g of AS/ha
Experimental: (§1) The herbicidal efficacy of the active compounds or active compound mixtures was scored visually using the treated plots in comparison to untreated control plots. The damage and development of all above-ground parts of the plants were recorded. Scoring was carried out using a percentage scale (100% effect=all plants killed; 50% effect=50% of the plants and the green parts of the plants killed; 0% effect=no noticeable effect=like control plot). The scores of in each case 4 plots were averaged.
(§2) If the observed activity values already exceed the formal sum of the values for the trials with the individual applications, they also exceed the expected value according to Colby which is calculated using the following formula and which is likewise considered to be an indication of synergism (cf. S. R. Colby; in Weeds 15 (1967) pp. 20 to 22): E=A+B−(A·B/100)
(§3) Crop plants were grown outdoors on plots under natural outdoor conditions, and seeds or rhizome pieces of typical harmful plants were laid out or the natural weed growth was utilized. […]
(§4) After the application, for example 2, 4, 6 and 8 weeks after the application, the effect of the preparations was scored visually by comparison with untreated controls (cf. scoring in Example 1). […]

[2] = tested on: Amaranthus retroflexus (AMARE); assay: Herbicidal effect in rice, field trial, Amaranthus retroflexus
Experimental: as §1, §2
(§5) Crop plants were grown outdoors on plots under natural outdoor conditions, and seeds or rhizome pieces of typical harmful plants were laid out or the natural weed growth was utilized. Treatment with the compositions according to the invention was carried out after the harmful plants had emerged and the crop plants were, generally, at the 2- to 4-leaf stage; in some cases (as stated), application of individual active compounds or active compound combinations was carried out pre-emergence (cf. Example 1) or as a sequential treatment partly pre-emergence and/or post-emergence.
(§6) After the application, for example 2, 4, 6 and 8 weeks after the application, the effect of the preparations was scored visually by comparison with untreated controls (cf. scoring in Example 1). In the field trial as well, the compositions according to the invention have synergistic herbicidal activity against a broad spectrum of economically important weed grasses and broad-leaved weeds. […] Moreover, the effects in essential phases of the scoring period were above the expected values according to Colby (cf. scoring in Example 1), also indicating synergism. […]

[3] = tested on: Cyperus difformis (CYPDI); assay: Herbicidal effect in rice, field trial, Cyperus difformis; details: Table 11 field trial, post-emergence 2-4-leaf stage, scoring 28 days after application, 45 g of AS/ha
Experimental: as §1, §2, §3, §4

Ipomoea spp (IPOSS) = assay: Herbicidal effect in rice, field trial, Ipomoea spp; details: Table 11 field trial, post-emergence 2-4-leaf stage, scoring 28 days after application, 45 g of AS/ha
Experimental: as §1, §2, §3, §4

rice = assay: Selectivity: damage to rice, field trial
Experimental: The damage and development of all above-ground parts of the plants were recorded. […] The scores of in each case 4 plots were averaged.
Crop plants were grown outdoors on plots under natural outdoor conditions, and seeds or rhizome pieces of typical harmful plants were laid out or the natural weed growth was utilized.

Cyperus iria (CYPIR) = assay: Herbicidal effect in rice, field trial, Cyperus iria; details: Table 14 field trial, post-emergence 3-leaf stage, scoring 42 days after application
Experimental: as §1, §2, §5, §6

[4] = tested on: Ipomea hederaceae (IPOHE); assay: Herbicidal effect in rice, field trial, Ipomea hederaceae; details: Table 8 field trial, post-emergence 2-4-leaf stage, scoring 28 days after application, 30 g of AS/ha
Experimental: as §1, §2, §3, §4

[5] = tested on: Echinochloa crus-galli (ECHCG); assay: Herbicidal effect in rice, field trial, Echinochloa crus-galli; details: Table 12 field trial, post-emergence 3-leaf stage, scoring 12 days after application
Experimental: as §1, §2, §5
(§7) After the application, for example 2, 4, 6 and 8 weeks after the application, the effect of the preparations was scored visually by comparison with untreated controls (cf. scoring in Example 1). In the field trial as well, the compositions according to the invention have synergistic herbicidal activity against a broad spectrum of economically important weed grasses and broad-leaved weeds. […] Moreover, the effects in essential phases of the scoring period were above the expected values according to Colby (cf. scoring in Example 1), also indicating synergism. In contrast, the crop plants were, as a consequence of the treatments with the herbicidal compositions, damaged only to a small degree, if at all.

[6] = tested on: Echinochloa colona (ECHCO); assay: Herbicidal effect in rice, field trial, Echinochloa colona; details: Table 2 field trial, post-emergence 2-4-leaf stage, scoring 21 days after application, 400 g of AS/ha
Experimental: as §1, §2, §5, §7

[7] = Table 9 field trial, post-emergence 2-4-leaf stage, scoring 28 days after application, 50 g of AS/ha

COc1cc(OC)nc(Oc2cccc(Oc3nc(OC)cc(OC)n3)c2C(=O)[O-])n1.[Na+] [(B4.6), bispyribac-Na]
Herbicidal effect (%) against SEBEX [1]: 93% | Herbicidal effect (%) against AMARE ([2]; Table 1 field trial, post-emergence, scoring 7 days after application, 45 g of AS/ha): 93% | Herbicidal effect (in %) against CYPDI [3]: 75% | Herbicidal effect (in %) against IPOSS (Ipomoea spp (IPOSS)): 91%

CC1(C)CON(Cc2ccccc2Cl)C1=O [(B4.2), clomazone]
Damage (in %) to rice (rice; in vivo): 0% | Herbicidal effect (in %) against CYPIR (Cyperus iria (CYPIR); 300 g of AS/ha): 30%

COc1cc(OC)nc(Oc2cccc(Oc3nc(OC)cc(OC)n3)c2C(=O)ON=C(c2ccccc2)c2ccccc2)n1 [(B4.25), pyribenzoxim]
Damage (in %) to rice (rice; Table 8 field trial, post-emergence 2-4-leaf stage, scoring 28 days after application, 30 g of AS/ha): 0% | Herbicidal effect (in %) against IPOHE [4]: 78%

CC(C)Oc1cc(-n2nc(C(C)(C)C)oc2=O)c(Cl)cc1Cl [(B4.8), oxadiazon]
Damage (in %) to rice (rice; in vivo): 0% | Herbicidal effect (in %) against CYPIR (Cyperus iria (CYPIR); 250 g of AS/ha): 75%

O=C(O)COc1nc(Cl)c(Cl)cc1Cl [(B3.1), triclopyr]
Herbicidal effect (in %) against AMARE [2, 7]: 66% | Damage (in %) to rice (rice; [7]): 18%

CCC(=O)Nc1ccc(Cl)c(Cl)c1 [(B1.7), propanil]
Damage (in %) to rice (rice; Table 12 field trial, post-emergence 3-leaf stage, scoring 12 days after application, 1250 g of AS/ha): 0% | Damage (in %) to rice (rice; Table 12 field trial, post-emergence 3-leaf stage, scoring 12 days after application, 2500 g of AS/ha): 5% | Damage (in %) to rice (rice; Table 12 field trial, post-emergence 3-leaf stage, scoring 12 days after application, 5000 g of AS/ha): 5% | Herbicidal effect (in %) against ECHCG ([5]; 1250 g of AS/ha): 0% | Herbicidal effect (in %) against ECHCG ([5]; 2500 g of AS/ha): 10% | Herbicidal effect (in %) against ECHCG ([5]; 5000 g of AS/ha): 30%

CCS(=O)(=O)Oc1ccc2c(c1)C(C)(C)CO2 [(B3.2), benfuresate]
Damage (in %) to rice (rice; in vivo): 0% | Herbicidal effect (in %) against ECHCO [6]: 0%
